From article PMC6973020, “Quinoline‐Conjugated Ruthenacarboranes: Toward Hybrid Drugs with a Dual Mode of Action” (Chemmedchem, 2019) come the findings set out here.

For the test, the system named is MCF‐7 cells. As to the kind of experiment: Sideward Scatter (SSC, cell granularity), MCF‐7. Particulars: MCF‐7, 20 μM of 4, 72 h. The format is cell-based, human. As for the experimental part:
Flow cytometry. For gaining better insights into the mechanisms of action of the ruthenium complexes, MCF‐7 and LN229 cells incubated with an IC50 dose of 3 or 4, were analyzed via flow cytometry. Several staining protocols were carried out in parallel, in independent experiments: i) AnnV/PI for the detection of apoptotic cell death, ii) AO for the detection of acidic vacuoles, iii) ApoStat for checking caspase activation, iv) CFSE for detecting interference with cellular proliferation, and v) DAPI for the detection of morphological signs of apoptosis. Untreated cells or cells treated only with BSA (control) were also measured, as reference for BSA‐free and BSA‐containing drug formulations, respectively. […] Channels FL1 (green emission), FL2 (orange emission) and/or FL3 (dark red emission) were used for fluorescence detection, according to the specific staining agent. Sideward Scatter (SSC) for MCF‐7 cells treated with 4 or BSA−4 was also analyzed, with respect to the control, for detection of shifts of cell granularity. […]
Figure S16. […] Respective controls, i.e. untreated cells or cells treated only with BSA, were also measured for comparison. […]
Figure S17. […] Respective controls, i.e. untreated cells or cells treated only with BSA, were also measured for comparison.
Sideward Scatter is proportional to cell granularity and was determined via flow cytometry. […]

For the substance “closo ‐[3‐(η^6‐p‐Cymene)‐1‐(quinolin‐8‐yl‐acetate)‐3,1,2‐RuC2B9H10] [Compound 4]”, the “cell granularity (SSC)” value is recorded as “enhanced granularity”.
